tested on: HCV 1b-377-neo replicon cells; test: HCV replicon assay, HCV 1b-377-neo replicon cells (1b FRET); format: cell-based, Hepatitis C virus genotype 1b; details: HCV 1b-377-neo replicon cells; HCV 1b genotype
How it was run: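 Compounds tested in HCV genotype 1b-377-neo replicon cells with a FRET read-out. Cells resistant to a reference NS5A inhibitor through a Y2065H NS5A mutation were run alongside wild-type cells.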

Question: With `O=C(C(c1ccccc1)N1C2CCC1CC2)N1CCC[C@H]1c1ncc(-c2ccc(-c3ccc(-c4cnc([C@@H]5CCCN5C(=O)C(c5ccccc5)N5C6CCC5CC6)[nH]4)cc3)cc2)[nH]1` (stereo partly drawn) [Example M1, 7,7′-(4,4′-biphenyldiylbis(1H-imidazole-5,2-diyl(2S)-2,1-pyrrolidinediyl(2-oxo-1-phenyl-2,1-ethanediyl)))bis(7-azabicyclo[2.2.1]heptane)] as the compound, how does the “EC50 range against HCV 1b (Table 2, Range)” value read?
Answer: >A

same assay, conditions: Hepatitis C virus, HCV 1b-377-neo replicon cells; HCV 1b genotype; read-out: EC50 range against HCV 1b (Table 2, Range)

Question: `CCN(CC)CCC(NC(=O)OC)C(=O)N1CCC[C@H]1c1ncc(-c2ccc(-c3ccc(-c4cnc([C@@H]5CCCN5C(=O)[C@H](NC(=O)OC)c5ccccc5)[nH]4)cc3)cc2)[nH]1` (stereo partly drawn) [Example M66a, methyl ((1R)-2-((2S)-2-(5-(4′-(2-((2S)-1-(4-(diethylamino)-2-((methoxycarbonyl)amino)butanoyl)-2-pyrrolidinyl)-1H-imidazol-5-yl)-4-biphenylyl)-1H-imidazol-2-yl)-1-pyrrolidinyl)-2-oxo-1-phenylethyl)carbamate] was tested. Which EC50 did it give?
Answer: 100000 to 999000 pM

Question: For `COC(=O)N[C@@H](C(=O)N1CCC[C@H]1c1ncc(-c2ccc(-c3ccc(-c4cnc([C@@H]5CCCN5C(=O)C(c5ccccn5)N(C)C)[nH]4)cc3)cc2)[nH]1)c1ccccc1` (stereo partly drawn) [Example 84-61, methyl ((1R)-2-((2S)-2-(5-(4′-(2-((2S)-1-((dimethylamino)(2-pyridinyl)acetyl)-2-pyrrolidinyl)-1H-imidazol-5-yl)-4-biphenylyl)-1H-imidazol-2-yl)-1-pyrrolidinyl)-2-oxo-1-phenylethyl)carbamate], which EC50 is on record?
Answer: 1 to 999 pM

Question: For `COC(=O)N[C@@H](C(=O)N1CCC[C@H]1c1nc(-c2ccc(-c3ccc(-c4[nH]c([C@@H]5CCCN5C(=O)[C@H](NC(=O)OC)c5ccccc5)nc4C)cc3)cc2)c(C)[nH]1)c1ccccc1` [Example E5j, dimethyl (4,4′-biphenyldiylbis((4-methyl-1H-imidazole-5,2-diyl)(2S)-2,1-pyrrolidinediyl((1R)-2-oxo-1-phenyl-2,1-ethanediyl)))biscarbamate], which EC50 is on record?
Answer: 1 to 999 pM

Question: `O=C(C(c1ccccc1)N1CCC(O)CC1)N1CCC[C@H]1c1ncc(-c2ccc(-c3ccc(-c4cnc([C@@H]5CCCN5C(=O)C(c5ccccc5)N5CCC(O)CC5)[nH]4)cc3)cc2)[nH]1` (stereo partly drawn) [Example 24-4h, 1,1′-(4,4′-biphenyldiylbis(1H-imidazole-5,2-diyl(2S)-2,1-pyrrolidinediyl(2-oxo-1-phenyl-2,1-ethanediyl)))di(4-piperidinol)] was tested. Which EC50 did it give?
Answer: 1 to 999 pM

Question: How did the EC50 turn out when `COC(=O)N[C@H](C(=O)N1CCC[C@H]1c1nc(-c2ccc(-c3ccc(-c4cnc([C@@H]5CCCN5C(=O)[C@H](NC(=O)OC)c5ccccc5)[nH]4)c(F)c3)cc2F)c[nH]1)C1CC1` [Example D66, methyl ((1S)-1-cyclopropyl-2-((2S)-2-(5-(3,3′-difluoro-4′-(2-((2S)-1-((2R)-2-((methoxycarbonyl)amino)-2-phenylacetyl)-2-pyrrolidinyl)-1H-imidazol-5-yl)-4-biphenylyl)-1H-imidazol-2-yl)-1-pyrrolidinyl)-2-oxoethyl)carbamate] was run?
Answer: 1 to 999 pM

Question: For `CCN(CC)[C@@H](C(=O)N1CCC[C@H]1c1ncc(-c2ccc(-c3ccc(-c4cnc([C@@H]5CCCN5C(=O)c5ncco5)[nH]4)cc3)cc2)[nH]1)c1ccccc1` [Example M37, (1R)-N,N-diethyl-2-((2S)-2-(5-(4′-(2-((2S)-1-(1,3-oxazol-2-ylcarbonyl)-2-pyrrolidinyl)-1H-imidazol-5-yl)-4-biphenylyl)-1H-imidazol-2-yl)-1-pyrrolidinyl)-2-oxo-1-phenylethanamine], which EC50 is on record?
Answer: 1000 to 99000 pM

Question: `COC(=O)N[C@@H](C)C(=O)N1CCC[C@H]1c1ncc(-c2ccc(-c3ccc(-c4cnc([C@@H]5CCCN5C(=O)[C@H](Cn5cccn5)NC(=O)OC)[nH]4)cc3)cc2)[nH]1` [cj-37, methyl ((1S)-2-((2S)-2-(5-(4′-(2-((2S)-1-(N-(methoxycarbonyl)-L-alanyl)-2-pyrrolidinyl)-1H-imidazol-5-yl)-4-biphenylyl)-1H-imidazol-2-yl)-1-pyrrolidinyl)-2-oxo-1-(1H-pyrazol-1-ylmethyl)ethyl)carbamate] was tested. Which EC50 did it give?
Answer: 1 to 999 pM

Question: For `COC(=O)N[C@@H](C(=O)N1CCC[C@H]1c1ncc(-c2ccc(-c3ccc(-c4cnc([C@@H]5CCCN5C(=O)[C@@H](c5ccccc5)N(C)C)[nH]4)cc3C)cc2)[nH]1)c1ccccc1` [Example 126, methyl ((1R)-2-((2S)-2-(5-(4′-(2-((2S)-1-((2R)-2-(dimethylamino)-2-phenylacetyl)-2-pyrrolidinyl)-1H-imidazol-5-yl)-2′-methyl-4-biphenylyl)-1H-imidazol-2-yl)-1-pyrrolidinyl)-2-oxo-1-phenylethyl)carbamate], which EC50 is on record?
Answer: 1 to 999 pM

Question: For `COC(=O)N[C@@H](C(=O)N1CCC[C@H]1c1ncc(-c2ccc(-c3ccc(-c4cnc([C@@H]5CCCN5C(=O)C(c5ccccc5F)N(C)C)[nH]4)cc3)cc2)[nH]1)c1ccccc1` (stereo partly drawn) [Example 84-59, methyl ((1R)-2-((2S)-2-(5-(4′-(2-((2S)-1-((dimethylamino)(2-fluorophenyl)acetyl)-2-pyrrolidinyl)-1H-imidazol-5-yl)-4-biphenylyl)-1H-imidazol-2-yl)-1-pyrrolidinyl)-2-oxo-1-phenylethyl)carbamate], which EC50 is on record?
Answer: 1 to 999 pM

Question: `CCCN(CCC)[C@H](C)C(=O)N1CCC[C@H]1c1ncc(-c2ccc(-c3ccc(-c4cnc([C@@H]5CCCN5C(=O)[C@@H](C)N(CCC)CCC)[nH]4)cc3)cc2)[nH]1` [Example M13, N,N′-(4,4′-biphenyldiylbis(1H-imidazole-5,2-diyl(2S)-2,1-pyrrolidinediyl((2R)-1-oxo-1,2-propanediyl)))bis(N-propyl-1-propanamine)] was tested. Which EC50 did it give?
Answer: 100000 to 999000 pM

Question: Which EC50 does the source give for `COC(=O)N[C@H](C(=O)N1CCC[C@H]1c1ncc(-c2ccc(-c3ccc(-c4cnc([C@@H]5CC(F)(F)CN5C(=O)[C@@H](NC(=O)OC)C(C)C)[nH]4)cc3)cc2)[nH]1)C(C)C` [OL-12, methyl ((1S)-1-(((2S)-2-(4-(4′-(2-((2S)-4,4-difluoro-1-((2S)-2-((methoxycarbonyl)amino)-3-methylbutanoyl)-2-pyrrolidinyl)-1H-imidazol-4-yl)-4-biphenylyl)-1H-imidazol-2-yl)-1-pyrrolidinyl)carbonyl)-2-methylpropyl)carbamate] here?
Answer: 1 to 999 pM

Question: For `CCNCC(=O)N1CCC[C@H]1c1ncc(-c2ccc(-c3ccc(-c4cnc([C@@H]5CCCN5C(=O)[C@@H](NC(=O)OC)C(C)C)[nH]4)cc3)cc2)[nH]1` [LS21, methyl ((1S)-1-(((2S)-2-(5-(4′-(2-((2S)-1-(N-ethylglycyl)-2-pyrrolidinyl)-1H-imidazol-5-yl)-4-biphenylyl)-1H-imidazol-2-yl)-1-pyrrolidinyl)carbonyl)-2-methylpropyl)carbamate], which EC50 is on record?
Answer: 1 to 999 pM

Question: With `COC(=O)N[C@@H](Cc1cccnc1)C(=O)N1CCC[C@H]1c1ncc(-c2ccc(-c3ccc(-c4cnc([C@@H]5CCCN5C(=O)[C@@H](NC(=O)OC)C(C)C)[nH]4)cc3)cc2)[nH]1` [cj-83, methyl ((1S)-2-((2S)-2-(5-(4′-(2-((2S)-1-((2S)-2-((methoxycarbonyl)amino)-3-methylbutanoyl)-2-pyrrolidinyl)-1H-imidazol-5-yl)-4-biphenylyl)-1H-imidazol-2-yl)-1-pyrrolidinyl)-2-oxo-1-(3-pyridinylmethyl)ethyl)carbamate] as the compound, how does the EC50 read?
Answer: 1 to 999 pM

Question: How did the EC50 turn out when `CCN(CC)[C@@H](C(=O)N1CCC[C@H]1c1ncc(-c2ccc(-c3ccc(-c4cnc([C@@H]5CCCN5C(=O)C[C@@H](Cc5cccs5)NC(=O)OC)[nH]4)cc3)cc2)[nH]1)c1ccccc1` [cj-56, methyl ((1S)-3-((2S)-2-(5-(4′-(2-((2S)-1-((2R)-2-(diethylamino)-2-phenylacetyl)-2-pyrrolidinyl)-1H-imidazol-5-yl)-4-biphenylyl)-1H-imidazol-2-yl)-1-pyrrolidinyl)-3-oxo-1-(2-thienylmethyl)propyl)carbamate] was run?
Answer: 1 to 999 pM

Question: How did the EC50 turn out when `COC(=O)N[C@@H](Cc1ccc(CN)cc1)C(=O)N1CCC[C@H]1c1ncc(-c2ccc(-c3ccc(-c4cnc([C@@H]5CCCN5C(=O)[C@@H](NC(=O)OC)C(C)C)[nH]4)cc3)cc2)[nH]1` [cj-103, methyl ((1S)-1-(4-(aminomethyl)benzyl)-2-((2S)-2-(5-(4′-(2-((2S)-1-((2S)-2-((methoxycarbonyl)amino)-3-methylbutanoyl)-2-pyrrolidinyl)-1H-imidazol-5-yl)-4-biphenylyl)-1H-imidazol-2-yl)-1-pyrrolidinyl)-2-oxoethyl)carbamate] was run?
Answer: 1 to 999 pM

Question: For `COC(=O)NCC(=O)N1CCC[C@H]1c1ncc(-c2ccc(-c3ccc(-c4cnc([C@@H]5CCCN5C(=O)[C@@H](c5ccccc5)N5CCCC5)[nH]4)cc3)cc2)[nH]1` [Example 102, methyl (2-oxo-2-((2S)-2-(5-(4′-(2-((2S)-1-((2R)-2-phenyl-2-(1-pyrrolidinyl)acetyl)-2-pyrrolidinyl)-1H-imidazol-5-yl)-4-biphenylyl)-1H-imidazol-2-yl)-1-pyrrolidinyl)ethyl)carbamate], which EC50 is on record?
Answer: 1 to 999 pM

Question: With `COC(=O)N[C@@H](C(=O)N1CCC[C@H]1c1ncc(-c2ccc(-c3ccc(-c4cnc([C@@H]5CCCN5C(=O)C(C)(C)c5ccc(Cl)cc5)[nH]4)cc3)cc2)[nH]1)c1ccccc1` [Example 84-79, methyl ((1R)-2-((2S)-2-(5-(4′-(2-((2S)-1-(2-(4-chlorophenyl)-2-methylpropanoyl)-2-pyrrolidinyl)-1H-imidazol-5-yl)-4-biphenylyl)-1H-imidazol-2-yl)-1-pyrrolidinyl)-2-oxo-1-phenylethyl)carbamate] as the compound, how does the EC50 read?
Answer: 1 to 999 pM

Question: Which EC50 does the source give for `CCN[C@@H](C(=O)N1CCC[C@H]1c1nc(-c2ccc(-c3ccc(-c4cnc([C@@H]5CCCN5C(=O)[C@H](NCC)c5ccccc5)[nH]4)cc3)cc2)c[nH]1)c1ccccc1` [Example F14, (1R)-N-ethyl-2-((2S)-2-(4-(4′-(2-((2S)-1-((2R)-2-(ethylamino)-2-phenylacetyl)-2-pyrrolidinyl)-1H-imidazol-5-yl)-4-biphenylyl)-1H-imidazol-2-yl)-1-pyrrolidinyl)-2-oxo-1-phenylethanamine] here?
Answer: 1 to 999 pM

Question: Which EC50 does the source give for `CNC(=O)c1nc([C@@H]2CCCN2C(=O)[C@@H](c2ccccc2)N(C)C)[nH]c1-c1ccc(-c2ccc(-c3cnc([C@@H]4CCCN4C(=O)[C@@H](c4ccccc4)N(C)C)[nH]3)cc2)cc1` [Example J26] here?
Answer: 1 to 999 pM

Source: patent publication US8574563B2 (Bristol-Myers Squibb Company, priority 2006, dated 2013)
